#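 Each compound was tested at five concentrations against cells in 96-well plates for 48 hours. GI50: concentration for 50% inhibition of growth. TGI: concentration producing complete growth inhibition.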
# Columns and labels:
# Experiment in all cases: DTP human tumour cell line panel, 48 h
# 786-0 renal = test system: 786-0 renal
# A498 renal = test system: A498 renal
# A549 NSCLC = test system: A549 NSCLC
# ACHN renal = test system: ACHN renal
# BT-549 breast = test system: BT-549 breast
# CAKI-1 renal = test system: CAKI-1 renal
# CCRF-CEM leukemia = test system: CCRF-CEM leukemia
# COLO 205 colon = test system: COLO 205 colon
# DU-145 prostate = test system: DU-145 prostate
# EKVX NSCLC = test system: EKVX NSCLC
# HCC-2998 colon = test system: HCC-2998 colon
# HCT-116 colon = test system: HCT-116 colon
# HCT-15 colon = test system: HCT-15 colon
# HL-60(TB) leukemia = test system: HL-60(TB) leukemia
# HOP-62 NSCLC = test system: HOP-62 NSCLC
# HOP-92 NSCLC = test system: HOP-92 NSCLC
# HS 578T breast = test system: HS 578T breast
# HT29 colon = test system: HT29 colon
# IGROV1 ovarian = test system: IGROV1 ovarian
# K-562 leukemia = test system: K-562 leukemia
# KM12 colon = test system: KM12 colon
# LOX IMVI melanoma = test system: LOX IMVI melanoma
# M14 melanoma = test system: M14 melanoma
# MALME-3M melanoma = test system: MALME-3M melanoma
# MCF7 breast = test system: MCF7 breast
# MDA-MB-231 breast = test system: MDA-MB-231 breast
# MDA-MB-435 = test system: MDA-MB-435
# MDA-MB-468 breast = test system: MDA-MB-468 breast
# MOLT-4 leukemia = test system: MOLT-4 leukemia
# NCI-H226 lung = test system: NCI-H226 lung
# NCI-H23 lung = test system: NCI-H23 lung
# NCI-H460 lung = test system: NCI-H460 lung
# NCI-H522 lung = test system: NCI-H522 lung
# NCI/ADR-RES ovarian = test system: NCI/ADR-RES ovarian
# OVCAR-3 ovarian = test system: OVCAR-3 ovarian
# OVCAR-4 ovarian = test system: OVCAR-4 ovarian
# OVCAR-5 ovarian = test system: OVCAR-5 ovarian
# OVCAR-8 ovarian = test system: OVCAR-8 ovarian
# PC-3 prostate = test system: PC-3 prostate
# RPMI-8226 leukemia = test system: RPMI-8226 leukemia
# RXF 393 renal = test system: RXF 393 renal
# SF-268 CNS = test system: SF-268 CNS
# SF-295 CNS = test system: SF-295 CNS
# SF-539 CNS = test system: SF-539 CNS
# SK-MEL-2 melanoma = test system: SK-MEL-2 melanoma
# SK-MEL-28 melanoma = test system: SK-MEL-28 melanoma
# SK-MEL-5 melanoma = test system: SK-MEL-5 melanoma
# SK-OV-3 ovarian = test system: SK-OV-3 ovarian
# SN12C renal = test system: SN12C renal
# SNB-19 CNS = test system: SNB-19 CNS
# SNB-75 CNS = test system: SNB-75 CNS
# SR leukemia = test system: SR leukemia
# SW-620 colon = test system: SW-620 colon
# T-47D breast = test system: T-47D breast
# TK-10 renal = test system: TK-10 renal
# U251 CNS = test system: U251 CNS
# UACC-257 melanoma = test system: UACC-257 melanoma
# UACC-62 melanoma = test system: UACC-62 melanoma
# UO-31 renal = test system: UO-31 renal
smiles,measurement,setting,value
COc1ccc(CCC2c3c(cc4c(c3OC)OCO4)CCN2C)cc1 (stereo not drawn),GI50,786-0 renal,9.15 µM
same,TGI,786-0 renal,24 µM
same,GI50,A498 renal,18 µM
same,TGI,A498 renal,64.6 µM
same,GI50,A549 NSCLC,17 µM
same,TGI,A549 NSCLC,> 100 µM
same,GI50,ACHN renal,8.95 µM
same,TGI,ACHN renal,45 µM
same,GI50,BT-549 breast,7.68 µM
same,TGI,BT-549 breast,20.1 µM
same,GI50,CAKI-1 renal,9.84 µM
same,TGI,CAKI-1 renal,38.8 µM
same,GI50,CCRF-CEM leukemia,11.2 µM
same,TGI,CCRF-CEM leukemia,46.7 µM
same,GI50,COLO 205 colon,5.99 µM
same,TGI,COLO 205 colon,21 µM
same,GI50,DU-145 prostate,20.1 µM
same,TGI,DU-145 prostate,86.2 µM
same,GI50,EKVX NSCLC,16.1 µM
same,TGI,EKVX NSCLC,67.7 µM
same,GI50,HCC-2998 colon,10.7 µM
same,TGI,HCC-2998 colon,25.7 µM
same,GI50,HCT-116 colon,3.35 µM
same,TGI,HCT-116 colon,13.8 µM
same,GI50,HCT-15 colon,9.8 µM
same,TGI,HCT-15 colon,34.8 µM
same,GI50,HL-60(TB) leukemia,3.01 µM
same,TGI,HL-60(TB) leukemia,18 µM
same,GI50,HOP-62 NSCLC,7.41 µM
same,TGI,HOP-62 NSCLC,46.3 µM
same,GI50,HOP-92 NSCLC,5.16 µM
same,TGI,HOP-92 NSCLC,23.4 µM
same,GI50,HS 578T breast,10.4 µM
same,TGI,HS 578T breast,41.8 µM
same,GI50,HT29 colon,3.63 µM
same,TGI,HT29 colon,20.9 µM
same,GI50,IGROV1 ovarian,5.72 µM
same,TGI,IGROV1 ovarian,22.1 µM
same,GI50,K-562 leukemia,3.94 µM
same,TGI,K-562 leukemia,24.6 µM
same,GI50,KM12 colon,12.6 µM
same,TGI,KM12 colon,33.2 µM
same,GI50,LOX IMVI melanoma,3.14 µM
same,TGI,LOX IMVI melanoma,12.6 µM
same,GI50,M14 melanoma,7.17 µM
same,TGI,M14 melanoma,23.2 µM
same,GI50,MALME-3M melanoma,14.2 µM
same,TGI,MALME-3M melanoma,27.5 µM
same,GI50,MCF7 breast,10.4 µM
same,TGI,MCF7 breast,24.3 µM
same,GI50,MDA-MB-231 breast,9.13 µM
same,TGI,MDA-MB-231 breast,22.6 µM
same,GI50,MDA-MB-435,3.78 µM
same,TGI,MDA-MB-435,17.1 µM
same,GI50,MDA-MB-468 breast,6.81 µM
same,TGI,MDA-MB-468 breast,21.6 µM
same,GI50,MOLT-4 leukemia,6.39 µM
same,TGI,MOLT-4 leukemia,32.8 µM
same,GI50,NCI-H226 lung,7.04 µM
same,TGI,NCI-H226 lung,25.6 µM
same,GI50,NCI-H23 lung,6.56 µM
same,TGI,NCI-H23 lung,31.7 µM
same,GI50,NCI-H460 lung,4.76 µM
same,TGI,NCI-H460 lung,19.1 µM
same,GI50,NCI-H522 lung,12.1 µM
same,TGI,NCI-H522 lung,27.1 µM
same,GI50,NCI/ADR-RES ovarian,9.23 µM
same,TGI,NCI/ADR-RES ovarian,26.2 µM
same,GI50,OVCAR-3 ovarian,10.9 µM
same,TGI,OVCAR-3 ovarian,29.3 µM
same,GI50,OVCAR-4 ovarian,17.2 µM
same,TGI,OVCAR-4 ovarian,99.2 µM
same,GI50,OVCAR-5 ovarian,5.98 µM
same,TGI,OVCAR-5 ovarian,28.8 µM
same,GI50,OVCAR-8 ovarian,13.1 µM
same,TGI,OVCAR-8 ovarian,30.5 µM
same,GI50,PC-3 prostate,9.52 µM
same,TGI,PC-3 prostate,35.1 µM
same,GI50,RPMI-8226 leukemia,4.05 µM
same,TGI,RPMI-8226 leukemia,27.4 µM
same,GI50,RXF 393 renal,6.99 µM
same,TGI,RXF 393 renal,30.6 µM
same,GI50,SF-268 CNS,14.3 µM
same,TGI,SF-268 CNS,> 100 µM
same,GI50,SF-295 CNS,3.5 µM
same,TGI,SF-295 CNS,17.2 µM
same,GI50,SF-539 CNS,4.91 µM
same,TGI,SF-539 CNS,16.8 µM
same,GI50,SK-MEL-2 melanoma,14.6 µM
same,TGI,SK-MEL-2 melanoma,36.7 µM
same,GI50,SK-MEL-28 melanoma,10.2 µM
same,TGI,SK-MEL-28 melanoma,22.5 µM
same,GI50,SK-MEL-5 melanoma,10.4 µM
same,TGI,SK-MEL-5 melanoma,22.2 µM
same,GI50,SK-OV-3 ovarian,17.3 µM
same,TGI,SK-OV-3 ovarian,43.3 µM
same,GI50,SN12C renal,7.05 µM
same,TGI,SN12C renal,37.4 µM
same,GI50,SNB-19 CNS,15 µM
same,TGI,SNB-19 CNS,> 100 µM
same,GI50,SNB-75 CNS,13.5 µM
same,TGI,SNB-75 CNS,70.5 µM
same,GI50,SR leukemia,3.94 µM
same,TGI,SR leukemia,24 µM
same,GI50,SW-620 colon,3.93 µM
same,TGI,SW-620 colon,16.8 µM
same,GI50,T-47D breast,6.92 µM
same,TGI,T-47D breast,29.6 µM
same,GI50,TK-10 renal,10.6 µM
same,TGI,TK-10 renal,31.8 µM
same,GI50,U251 CNS,13.6 µM
same,TGI,U251 CNS,46.5 µM
same,GI50,UACC-257 melanoma,13.4 µM
same,TGI,UACC-257 melanoma,28.2 µM
same,GI50,UACC-62 melanoma,10.6 µM
same,TGI,UACC-62 melanoma,23.2 µM
same,GI50,UO-31 renal,8.73 µM
same,TGI,UO-31 renal,54.1 µM
